Where two headings read alike, the source gives them in different places.

The source of these data is patent US20070136828A1, “Methods of using molecules related to organic cation transporter 3 (oct3) for treating depression, anxiety neuroses, drug dependencies, and other similar mental disorders” (Biostation Inc., priority 2004, published 2007).

Test [1] concerns Male ddY mice. Put plainly: Forced swimming test (depression model). The class given is in vivo.
Protocol: Male ddY mice were used for the experiments. Mice raised for three or more days after purchase were made to swim for 300 seconds in a beaker (15 cm in diameter, 20 cm in height). Immobility time was measured, and the mice were divided into groups such that the average immobility time was approximately the same for each group. The day after swimming an antisense (OCT3 antisense) constructed from an OCT3 gene sequence was continuously infused into the cerebral ventricle, using an osmotic pump according to the reported literature (J. Chem. Neuroanat. 2000. 20: 375-87). Further, a group infused with Ringer's solution, which is an antisense solvent (the solvent group) and a group infused with a cDNA sequence with the same bases as the antisense but in a random sequence without homology to known genes (the scrambled OCT3 antisense group) were also prepared. One week after infusion the mice were returned to the beakers and made to swim for 300 seconds, and immobility time was measured. Imipramine anti-depressant was intraperitoneally administered 30 minutes before the beginning of the test.
Test [2] concerns Male ddY mice. Conditions: anti-depressant administration: chlordiazepoxide 100 mg/kg, imipramine 16 mg/kg; Behav Brain Res. 73, 43-46, 1996; cited from earlier work.
A further test concerns the target T1, OCT3/uptake2 (Homo sapiens, UniProt O75751).
T1 sequence (O75751 1-556): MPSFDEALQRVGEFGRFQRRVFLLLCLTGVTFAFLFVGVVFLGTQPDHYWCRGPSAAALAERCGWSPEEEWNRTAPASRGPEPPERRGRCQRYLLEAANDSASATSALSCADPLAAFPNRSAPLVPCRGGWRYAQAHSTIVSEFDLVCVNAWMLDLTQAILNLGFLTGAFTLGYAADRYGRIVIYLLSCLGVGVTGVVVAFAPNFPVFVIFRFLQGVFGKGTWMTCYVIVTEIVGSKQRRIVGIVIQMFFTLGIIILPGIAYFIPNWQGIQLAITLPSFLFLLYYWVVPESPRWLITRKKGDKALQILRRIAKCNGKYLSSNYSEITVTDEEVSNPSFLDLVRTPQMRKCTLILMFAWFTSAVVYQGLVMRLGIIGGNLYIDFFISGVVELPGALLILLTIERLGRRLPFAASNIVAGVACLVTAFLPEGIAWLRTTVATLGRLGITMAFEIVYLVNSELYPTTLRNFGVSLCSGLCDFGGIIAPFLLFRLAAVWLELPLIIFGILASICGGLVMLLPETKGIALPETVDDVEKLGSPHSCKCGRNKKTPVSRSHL
Particulars: cited from earlier work.

The next test relates to other OCT subtypes. Particulars: cited from earlier work.
For test [3], the system named is cultured porcine tubular cells. Particulars: cited from earlier work.
Test [4] addresses T2, kidney derived Caki-1 cells, which contain OCT3 (Homo sapiens, UniProt O75751).
T2 construct: kidney derived Caki-1 cells, which contain OCT3; endogenous in cells; host or cells: Caki-1
T2 sequence (O75751 1-556): T1 sequence (O75751 1-556)
Particulars: cited from earlier work.

The conditions of test [5]: intravenous administration; cited from earlier work.

`CN(C)CCCN1c2ccccc2CCc2ccccc21` [imipramine]: the “immobility time (average value)” value in the test on Male ddY mice [1] (imipramine 4 mg/kg intraperitoneally 30 minutes before test, 300 seconds of swimming, FIG. 1B) is 245 ± 15 s. In addition, in the test on Male ddY mice [2], the condition of immobility entry is “shortened”.

Regarding `CCN1/C(=C/c2ccc3ccccc3[n+]2CC)C=Cc2ccccc21.[I-]` [decynium 22], the “inhibition of OCT3/uptake2” value at OCT3/uptake2 is “potent OCT3 inhibitors”. Also, in the test with other OCT subtypes, the “inhibitory activity towards other OCT subtypes” value was “potent inhibitory activity”.

With `CCN1C(=Cc2cc(C)nc(-c3ccccc3)[n+]2C)C=Cc2ccccc21.[Cl-]` [cyanine 863], the “inhibition of OCT3/uptake2” value at OCT3/uptake2 is reported as “potent OCT3 inhibitors”. The “inhibitory activity towards other OCT subtypes” value in the test with other OCT subtypes is listed as “potent inhibitory activity”.

With `CC(=O)[C@H]1CC[C@H]2[C@@H]3CCC4=CC(=O)CC[C@]4(C)[C@H]3CC[C@]12C` [progesterone], the noradrenaline uptake entry in test [3] was “significantly reduce”.

Consider `C[C@]12C[C@H](O)[C@H]3[C@@H](CCC4=CC(=O)CC[C@@]43C)[C@@H]1CC[C@@H]2C(=O)CO` [Corticosterone, corticosterone], for which the “uptake of MPP+” value in test [4] is recorded as “suppresses”.

On to `CC(C)N1C=CC(=Cc2ccc3ccccc3[n+]2C(C)C)c2ccccc21` [disprocynium24, 1,1′-diisopropyl-2,4′-cyanine], for which the figures for the “inhibition of OCT3/uptake2” value at OCT3/uptake2 and on OCT3/uptake2 (listed as disprocynium 24) were “potent inhibitor” and “potent OCT3 inhibitors”, respectively. In test [5], the “excretion of monoamine into urine” value is given as “strongly suppresses”. The “inhibitory activity towards other OCT subtypes” value with other OCT subtypes is recorded as “potent inhibitory activity”.

Take `COc1cc(C(O)CN)ccc1O` (stereo not shown) [normetanephrine]: in the test with Male ddY mice [1] (normetanephrine 2.5 μg/0.25 μl/hr continuous infusion to cerebral ventricle, one week, FIG. 2), the “immobility time (average value)” value came to 108 ± 29 s.
